Results published in US20260272934A1 (The United States of America, as represented by the …, priority 2023, published 2026).
pKi: −log10 of the molar value.

Experiments:
[1] = target: Alpha2C (Homo sapiens, UniProt P18825); experiment: Off-target primary and secondary screen; type: binding; conditions: 10 mM sample
[2] = target: 5-HT3 (Homo sapiens, UniProt P46098); experiment: Off-target primary and secondary screen; type: binding; conditions: 10 mM sample
[3] = target: 5-HT2A (Homo sapiens, UniProt P28223); experiment: Off-target primary and secondary screen; type: binding; conditions: for Primary screen AVE (% inhib) ± SD: 10 mM sample
[4] = target: D2 (Homo sapiens, UniProt P14416); experiment: Off-target primary and secondary screen; type: binding; conditions: 10 mM sample
[5] = target: 5-HT6 (Homo sapiens, UniProt P50406); experiment: Off-target primary and secondary screen; type: binding; conditions: 10 mM sample
[6] = target: Alpha1A (Homo sapiens, UniProt P35348); experiment: Off-target primary and secondary screen; type: binding; conditions: 10 mM sample
[7] = target: Sigma 2 (Homo sapiens, UniProt Q5BJF2); experiment: Off-target primary and secondary screen; type: binding; conditions: 10 mM sample
[8] = target: 5-HT1D (Homo sapiens, UniProt P28221); experiment: Off-target primary and secondary screen; type: binding; conditions: 10 mM sample
[9] = target: DAT (Homo sapiens, UniProt Q01959); experiment: Off-target primary and secondary screen; type: binding; conditions: 10 mM sample
[10] = target: 5-HT1A (Homo sapiens, UniProt P08908); experiment: Off-target primary and secondary screen; type: binding; conditions: 10 mM sample
[11] = target: Alpha2A (Homo sapiens, UniProt P08913); experiment: Off-target primary and secondary screen; type: binding; conditions: 10 mM sample
[12] = target: M2 (Homo sapiens, UniProt P08172); experiment: Off-target primary and secondary screen; type: binding; conditions: 10 mM sample
[13] = target: MOR (Homo sapiens, UniProt P35372); experiment: Off-target primary and secondary screen; type: binding; conditions: 10 mM sample
[14] = target: M5 (Homo sapiens, UniProt P08912); experiment: Off-target primary and secondary screen; type: binding; conditions: 10 mM sample
[15] = target: H1 (Homo sapiens, UniProt P35367); experiment: Off-target primary and secondary screen; type: binding; conditions: 10 mM sample
[16] = target: DOR (Homo sapiens, UniProt P41143); experiment: Off-target primary and secondary screen; type: binding; conditions: 10 mM sample
[17] = target: D3 (Homo sapiens, UniProt P35462); experiment: Off-target primary and secondary screen; type: binding; conditions: 10 mM sample
[18] = target: H4 (Homo sapiens, UniProt Q9H3N8); experiment: Off-target primary and secondary screen; type: binding; conditions: 10 mM sample
[19] = target: T1, 5-HT2C (Homo sapiens, UniProt P28335); experiment: Off-target primary and secondary screen; type: binding; conditions: for Primary screen AVE (% inhib) ± SD: 10 mM sample
T1 sequence (P28335 33-458): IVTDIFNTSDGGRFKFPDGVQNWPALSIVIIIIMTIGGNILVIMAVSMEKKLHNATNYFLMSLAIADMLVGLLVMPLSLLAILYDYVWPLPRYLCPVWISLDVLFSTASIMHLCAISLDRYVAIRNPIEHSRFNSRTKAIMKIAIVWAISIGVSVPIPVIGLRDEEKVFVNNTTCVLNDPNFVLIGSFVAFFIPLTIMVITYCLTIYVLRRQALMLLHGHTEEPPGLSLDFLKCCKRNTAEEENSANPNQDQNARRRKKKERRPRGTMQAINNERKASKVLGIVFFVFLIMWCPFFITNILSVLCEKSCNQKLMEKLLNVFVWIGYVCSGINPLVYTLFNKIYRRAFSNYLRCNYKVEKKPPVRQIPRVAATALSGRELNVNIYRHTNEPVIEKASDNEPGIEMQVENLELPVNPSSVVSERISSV

[20] = target: Beta3 (Homo sapiens, UniProt P13945); experiment: Off-target primary and secondary screen; type: binding; conditions: 10 mM sample
[21] = target: D4 (Homo sapiens, UniProt P21917); experiment: Off-target primary and secondary screen; type: binding; conditions: 10 mM sample
[22] = system: Plk3 PBD; experiment: FP-based inhibition assay; type: binding; conditions: N.S. = Not significant
Experimental: (§1) In the following, PBD1-3 fluorescence polarization (FP) binding assays were carried out for determining the Plk1 specificity. FP assays were carried out essentially as described previously {Liu, 2011 #2790; Qian, 2014 #1416}. All samples were analyzed approximately 30 min after reaction in a 384-well format using the SpectraMax Paradigm multi-mode microplate detection platform (Molecular Devices). Data were analyzed after carrying out at least three independent experiments using GraphPad Prism software version 7.

[23] = system: Plk2 PBD; experiment: FP-based inhibition assay; type: binding; conditions: N.S. = Not significant
Experimental: as §1

[24] = system: Hela cells; experiment: Immunoprecipitation, confocal imaging and time-lapse analyses in Hela cells; type: cell-based
Source text: FIG. 5 illustrates the inhibition by Allopole of PBD1-dependent interactions and subcellular localizations leading to mitotic block in Hela cells. FIG. 5a depicts the immunoprecipitation and immunoblotting analyses.

[25] = target: T2, PBD1 WT or mutants (F559) (Homo sapiens, UniProt P53350, F559D); experiment: FP-based inhibition and U2OS imaging with PBD1/Plk1 WT or F559 mutants; type: binding; conditions: in vitro and in vivo; U2OS cells 8 μM
T2 construct: the indicated PBD1 WT or mutants in the presence of various concentrations of Allopole
Experimental: Bars, mean #s.d. FIG. 7(b) depicts the results of FP-based inhibition assays for the interaction between FITC-Ahx-DPPLHS-pT-AI-NH2 and the indicated PBD1 WT or mutants in the presence of various concentrations of Allopole. Bars, mean±s.d. FIG. 7(c) depicts confocal imaging and quantification of Plk1 endogenous promoter (Pendo)-fused mGFP-Plk1 signals in U2OS cells silenced for endogenous Plk1 (siPlk1) and treated with 8 μM of Allopole for the indicated length of time (Experimental procedure at bottom, right). Arrowheads, centrosomes. Quantification of Pendo-mGFP-Plk1 signals was performed with the images acquired from three independent experiments [n=a total of 93, 53, and 79 cells for Plk1 WT samples (in order) and n=a total of 92, 64, and 76 cells for the F559D mutant samples (in order)]. Bars, mean±s.d. Arrowheads, centrosomes. ****, P<0.0001 (unpaired two-tailed t-test).

Chain of 5-HT2A (P28223 whole entry, species assumed): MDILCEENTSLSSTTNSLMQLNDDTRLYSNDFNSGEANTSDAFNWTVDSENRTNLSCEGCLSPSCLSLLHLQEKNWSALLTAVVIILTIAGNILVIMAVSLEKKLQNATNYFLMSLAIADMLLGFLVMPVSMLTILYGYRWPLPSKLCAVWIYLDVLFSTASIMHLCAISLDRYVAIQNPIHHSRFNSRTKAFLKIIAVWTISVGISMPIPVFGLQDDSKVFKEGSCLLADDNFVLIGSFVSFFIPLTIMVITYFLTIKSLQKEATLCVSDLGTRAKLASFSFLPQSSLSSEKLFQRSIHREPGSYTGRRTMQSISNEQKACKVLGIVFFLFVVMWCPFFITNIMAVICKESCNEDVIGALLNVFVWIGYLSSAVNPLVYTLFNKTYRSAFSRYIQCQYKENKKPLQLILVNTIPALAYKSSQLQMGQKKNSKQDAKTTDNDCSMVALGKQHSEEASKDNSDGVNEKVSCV
Chain of Alpha2C (P18825 whole entry): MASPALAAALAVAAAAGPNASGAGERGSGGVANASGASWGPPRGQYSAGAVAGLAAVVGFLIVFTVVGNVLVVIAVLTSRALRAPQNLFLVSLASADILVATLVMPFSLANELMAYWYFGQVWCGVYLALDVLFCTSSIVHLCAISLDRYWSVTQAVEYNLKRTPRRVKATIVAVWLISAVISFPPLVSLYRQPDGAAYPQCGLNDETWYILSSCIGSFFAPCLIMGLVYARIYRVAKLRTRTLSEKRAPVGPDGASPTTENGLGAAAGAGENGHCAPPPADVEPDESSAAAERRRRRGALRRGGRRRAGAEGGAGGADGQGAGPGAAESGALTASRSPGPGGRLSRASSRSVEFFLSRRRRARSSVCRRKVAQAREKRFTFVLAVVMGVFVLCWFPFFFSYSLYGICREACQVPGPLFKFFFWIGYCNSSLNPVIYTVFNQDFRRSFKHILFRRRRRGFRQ
Chain of 5-HT6 (P50406 whole entry, species assumed): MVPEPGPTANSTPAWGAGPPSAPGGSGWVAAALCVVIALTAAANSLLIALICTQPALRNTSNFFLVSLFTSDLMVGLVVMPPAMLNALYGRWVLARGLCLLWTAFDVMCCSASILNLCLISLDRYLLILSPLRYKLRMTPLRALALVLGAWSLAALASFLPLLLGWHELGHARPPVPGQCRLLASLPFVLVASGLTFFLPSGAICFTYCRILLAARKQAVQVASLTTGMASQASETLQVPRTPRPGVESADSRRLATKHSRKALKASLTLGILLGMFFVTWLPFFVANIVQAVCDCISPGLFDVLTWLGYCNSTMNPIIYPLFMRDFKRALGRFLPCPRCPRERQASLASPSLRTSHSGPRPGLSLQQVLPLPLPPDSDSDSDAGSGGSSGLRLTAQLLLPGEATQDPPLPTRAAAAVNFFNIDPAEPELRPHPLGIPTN
Chain of M5 (P08912 whole entry): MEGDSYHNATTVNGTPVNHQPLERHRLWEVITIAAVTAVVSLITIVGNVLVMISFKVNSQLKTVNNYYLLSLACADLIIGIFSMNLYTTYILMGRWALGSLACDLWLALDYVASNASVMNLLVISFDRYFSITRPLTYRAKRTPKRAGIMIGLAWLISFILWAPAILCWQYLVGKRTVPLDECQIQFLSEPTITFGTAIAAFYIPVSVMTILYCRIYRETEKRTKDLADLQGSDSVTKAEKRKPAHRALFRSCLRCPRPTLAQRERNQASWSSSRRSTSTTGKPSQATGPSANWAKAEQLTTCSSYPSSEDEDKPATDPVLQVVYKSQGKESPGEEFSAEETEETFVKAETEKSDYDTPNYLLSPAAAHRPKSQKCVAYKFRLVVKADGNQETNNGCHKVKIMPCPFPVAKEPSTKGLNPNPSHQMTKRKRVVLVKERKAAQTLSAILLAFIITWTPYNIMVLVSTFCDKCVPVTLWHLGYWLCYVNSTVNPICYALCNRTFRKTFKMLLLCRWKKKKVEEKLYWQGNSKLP
Chain of 5-HT3 (P46098 24-478, species assumed): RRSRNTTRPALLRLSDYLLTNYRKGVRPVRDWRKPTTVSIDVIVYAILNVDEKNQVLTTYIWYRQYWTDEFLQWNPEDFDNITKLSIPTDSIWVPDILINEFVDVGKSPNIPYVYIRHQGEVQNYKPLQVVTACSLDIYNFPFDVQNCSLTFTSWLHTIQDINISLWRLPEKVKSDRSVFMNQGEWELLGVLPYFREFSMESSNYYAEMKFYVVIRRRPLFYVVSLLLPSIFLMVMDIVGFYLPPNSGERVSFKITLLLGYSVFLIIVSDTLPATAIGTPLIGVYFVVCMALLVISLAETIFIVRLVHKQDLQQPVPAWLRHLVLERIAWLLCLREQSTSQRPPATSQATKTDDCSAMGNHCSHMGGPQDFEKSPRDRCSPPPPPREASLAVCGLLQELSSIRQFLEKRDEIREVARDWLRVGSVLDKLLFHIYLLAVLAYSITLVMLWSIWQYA
Chain of 5-HT1A (P08908 whole entry, species assumed): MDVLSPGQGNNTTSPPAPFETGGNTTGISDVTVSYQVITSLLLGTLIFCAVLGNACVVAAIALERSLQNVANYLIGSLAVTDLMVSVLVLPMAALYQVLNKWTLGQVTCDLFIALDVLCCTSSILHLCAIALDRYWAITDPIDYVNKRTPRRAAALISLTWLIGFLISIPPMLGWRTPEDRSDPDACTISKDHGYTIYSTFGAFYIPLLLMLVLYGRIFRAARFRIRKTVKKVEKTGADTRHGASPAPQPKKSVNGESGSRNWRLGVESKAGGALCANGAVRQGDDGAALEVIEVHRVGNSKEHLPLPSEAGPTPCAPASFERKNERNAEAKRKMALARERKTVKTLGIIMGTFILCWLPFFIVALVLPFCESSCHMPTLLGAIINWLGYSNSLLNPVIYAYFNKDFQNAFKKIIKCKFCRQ
Chain of DAT (Q01959 whole entry, species assumed): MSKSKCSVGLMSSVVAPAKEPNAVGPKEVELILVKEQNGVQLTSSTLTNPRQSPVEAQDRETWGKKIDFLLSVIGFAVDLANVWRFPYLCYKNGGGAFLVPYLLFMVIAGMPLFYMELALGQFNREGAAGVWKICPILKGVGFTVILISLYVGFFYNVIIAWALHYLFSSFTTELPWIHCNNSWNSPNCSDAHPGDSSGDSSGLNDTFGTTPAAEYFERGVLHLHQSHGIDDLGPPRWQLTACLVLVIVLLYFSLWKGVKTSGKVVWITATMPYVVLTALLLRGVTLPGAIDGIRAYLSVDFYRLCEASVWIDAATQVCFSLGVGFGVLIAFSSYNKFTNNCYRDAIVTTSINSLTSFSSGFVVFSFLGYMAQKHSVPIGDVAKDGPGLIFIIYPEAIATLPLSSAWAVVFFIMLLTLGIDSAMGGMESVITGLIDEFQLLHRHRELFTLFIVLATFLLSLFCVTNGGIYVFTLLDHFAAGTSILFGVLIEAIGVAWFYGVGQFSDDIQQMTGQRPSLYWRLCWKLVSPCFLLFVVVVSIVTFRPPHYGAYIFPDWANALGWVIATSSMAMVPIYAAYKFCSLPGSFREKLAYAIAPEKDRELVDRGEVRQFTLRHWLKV
Chain of MOR (P35372 whole entry): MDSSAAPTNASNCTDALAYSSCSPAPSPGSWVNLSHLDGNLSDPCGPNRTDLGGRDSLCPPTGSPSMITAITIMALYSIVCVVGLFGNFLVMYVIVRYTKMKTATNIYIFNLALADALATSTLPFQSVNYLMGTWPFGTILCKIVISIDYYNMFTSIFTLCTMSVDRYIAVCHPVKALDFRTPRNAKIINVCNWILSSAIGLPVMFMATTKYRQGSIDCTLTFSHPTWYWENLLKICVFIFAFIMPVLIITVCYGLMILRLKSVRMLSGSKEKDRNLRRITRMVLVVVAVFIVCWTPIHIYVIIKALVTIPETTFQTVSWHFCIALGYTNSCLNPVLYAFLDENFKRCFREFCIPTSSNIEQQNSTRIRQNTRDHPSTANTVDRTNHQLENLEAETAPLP
Chain of H1 (P35367 whole entry): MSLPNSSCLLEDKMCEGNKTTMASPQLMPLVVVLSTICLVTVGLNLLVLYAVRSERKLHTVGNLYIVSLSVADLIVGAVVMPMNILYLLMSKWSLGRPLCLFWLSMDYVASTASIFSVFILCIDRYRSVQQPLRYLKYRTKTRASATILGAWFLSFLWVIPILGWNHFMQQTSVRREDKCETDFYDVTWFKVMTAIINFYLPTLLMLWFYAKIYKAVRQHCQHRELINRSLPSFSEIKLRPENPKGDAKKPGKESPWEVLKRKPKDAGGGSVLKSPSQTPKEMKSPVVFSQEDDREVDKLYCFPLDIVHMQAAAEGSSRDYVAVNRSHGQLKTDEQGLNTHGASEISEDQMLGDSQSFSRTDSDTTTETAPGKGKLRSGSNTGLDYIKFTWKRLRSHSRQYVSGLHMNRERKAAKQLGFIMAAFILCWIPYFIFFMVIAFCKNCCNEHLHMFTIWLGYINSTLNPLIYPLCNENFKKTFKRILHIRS
Chain of Sigma 2 (Q5BJF2 whole entry): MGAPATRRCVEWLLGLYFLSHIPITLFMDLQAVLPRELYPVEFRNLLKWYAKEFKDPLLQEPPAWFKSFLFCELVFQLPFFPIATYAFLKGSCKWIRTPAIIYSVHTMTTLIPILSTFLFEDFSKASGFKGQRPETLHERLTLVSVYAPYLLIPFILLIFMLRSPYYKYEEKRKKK
Chain of Beta3 (P13945 whole entry): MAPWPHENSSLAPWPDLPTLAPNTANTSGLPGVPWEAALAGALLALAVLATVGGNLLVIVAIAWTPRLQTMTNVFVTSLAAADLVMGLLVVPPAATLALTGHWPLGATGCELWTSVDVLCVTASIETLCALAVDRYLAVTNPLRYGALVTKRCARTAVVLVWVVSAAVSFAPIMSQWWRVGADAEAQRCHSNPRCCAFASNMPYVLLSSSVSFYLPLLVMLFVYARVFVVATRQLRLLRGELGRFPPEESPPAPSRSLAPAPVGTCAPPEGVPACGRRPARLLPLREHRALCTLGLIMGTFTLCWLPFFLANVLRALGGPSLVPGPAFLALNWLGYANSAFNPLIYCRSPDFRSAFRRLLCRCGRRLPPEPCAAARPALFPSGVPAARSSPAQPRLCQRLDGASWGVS

O=c1c2sc(Cl)cc2n2c(=S)[nH]nc2n1CC1CC1 [Compound 19, 7-Chloro-4-(cyclopropylmethyl)-1-thioxo-2,4-dihydrothieno[2,3-e][1,2,4]triazolo[4,3-a]pyrimidin-5 (1H)-one]
Primary screen AVE (% inhib) ± SD [1]: 10.6 ± 4.2 % inhib | Primary screen AVE (% inhib) ± SD [2]: -3.8 ± 3.1 % inhib | Primary screen AVE (% inhib) ± SD [3]: 37.0 ± 10.4 % inhib | Primary screen AVE (% inhib) ± SD [4]: -27.4 ± 13.1 % inhib | Primary screen AVE (% inhib) ± SD [5]: -5.0 ± 11.7 % inhib | Primary screen AVE (% inhib) ± SD [6]: -9.4 ± 18.0 % inhib | Primary screen AVE (% inhib) ± SD [7]: 40.6 ± 9.5 % inhib | Primary screen AVE (% inhib) ± SD [8]: 22.5 ± 25.6 % inhib | Primary screen AVE (% inhib) ± SD [9]: 43.9 ± 13.0 % inhib | Primary screen AVE (% inhib) ± SD [10]: -20.0 ± 27.4 % inhib | Primary screen AVE (% inhib) ± SD [11]: -6.3 ± 7.9 % inhib | Primary screen AVE (% inhib) ± SD [12]: 21.1 ± 19.7 % inhib | Primary screen AVE (% inhib) ± SD [13]: 30.8 ± 47.5 % inhib | Primary screen AVE (% inhib) ± SD [14]: 130.2 ± 3.0 % inhib | Primary screen AVE (% inhib) ± SD [15]: 11.5 ± 2.8 % inhib | Primary screen AVE (% inhib) ± SD [16]: -13.5 ± 6.8 % inhib | Primary screen AVE (% inhib) ± SD [17]: -7.0 ± 21.7 % inhib | Primary screen AVE (% inhib) ± SD [18]: -4.5 ± 11.4 % inhib | Primary screen AVE (% inhib) ± SD [19]: -18.3 ± 22.0 % inhib | Primary screen AVE (% inhib) ± SD [20]: 17.9 ± 8.6 % inhib | Primary screen AVE (% inhib) ± SD [21]: -24.3 ± 4.4 % inhib | Plk3 PBD IC50 ± SD [22]: N.S. | Plk2 PBD IC50 ± SD [23]: N.S.

Cn1cnc([N+](=O)[O-])c1Sc1nnc2n(CC3CC3)c(=O)c3sc(Cl)cc3n12 [Compound 20, 7-Chloro-4-(cyclopropylmethyl)-1-((1-methyl-4-nitro-1H-imidazol-5-yl)thio) thieno[2,3-e][1,2,4]triazolo[4,3-a]pyrimidin-5 (4H)-one]
Primary screen AVE (% inhib) ± SD [1]: 6.4 ± 7.5 % inhib | Primary screen AVE (% inhib) ± SD [2]: -0.8 ± 4.6 % inhib | pKi [3]: 5.04 | Primary screen AVE (% inhib) ± SD [3]: 52.4 ± 11.8 % inhib | effect of inhibition of PBD1-dependent interactions and subcellular localizations [24]: mitotic block | Primary screen AVE (% inhib) ± SD [4]: 3.6 ± 6.6 % inhib | Primary screen AVE (% inhib) ± SD [5]: 21.9 ± 15.6 % inhib | Primary screen AVE (% inhib) ± SD [6]: 40.6 ± 10.5 % inhib | Primary screen AVE (% inhib) ± SD [7]: 40.7 ± 5.8 % inhib | Primary screen AVE (% inhib) ± SD [8]: 32.8 ± 27.1 % inhib | Primary screen AVE (% inhib) ± SD [9]: 54.0 ± 10.7 % inhib | Primary screen AVE (% inhib) ± SD [10]: -12.8 ± 19.7 % inhib | Primary screen AVE (% inhib) ± SD [11]: 9.4 ± 4.6 % inhib | Primary screen AVE (% inhib) ± SD [12]: 9.3 ± 19.3 % inhib | Primary screen AVE (% inhib) ± SD [13]: 40.6 ± 51.0 % inhib | Primary screen AVE (% inhib) ± SD [14]: 95.0 ± 7.4 % inhib | Primary screen AVE (% inhib) ± SD [15]: 35.8 ± 11.9 % inhib | Primary screen AVE (% inhib) ± SD [16]: -1.0 ± 4.8 % inhib | Primary screen AVE (% inhib) ± SD [17]: 12.8 ± 12.8 % inhib | Primary screen AVE (% inhib) ± SD [18]: 8.2 ± 3.1 % inhib | pKi [19]: 5.89 | Primary screen AVE (% inhib) ± SD [19]: 59.5 ± 3.0 % inhib | sensitivity of Plk1 with F559 mutated to a charged residue to treatment [25]: insensitive | Primary screen AVE (% inhib) ± SD [20]: 30.8 ± 22.8 % inhib | Primary screen AVE (% inhib) ± SD [21]: 12.6 ± 4.9 % inhib
